Measured values published in patent publication US12152016B2, “Aryl hydrocarbon receptor modulators and uses thereof” (Beth Israel Deaconess Medical Center, Inc., priority 2018, dated 2024).
“Also recorded” adds a separate entry of the source.

Legend:
[1] = test system: AHR-dependent transcription of the CYP1A1 gene; test: CYP1A1 induction in mouse macrophages; type: cell-based
Experimental: (§1) Mouse macrophages were also used to test AHR-dependent transcription of the CYP1A1 gene in vivo. Finally, the activity of exemplary compounds of Formula (I) described herein was tested in the human […] cell line U937. The U937 cell line is derived from a patient with diffuse histiocytic lymphoma. Tables 2-4 summarize structure-activity relationship data collected for exemplary, non-limiting compounds of Formula (I) described herein.

[2] = Liver microsomal stability (LCMS/MS); type: in vitro ADME; conditions: in the presence of liver microsomes
[3] = Plasma stability (LCMS/MS); type: in vitro ADME; conditions: incubated in plasma
[4] = biological target: T1, aryl hydrocarbon receptor (AHR) (Homo sapiens, UniProt P35869); test: XRE-driven luciferase reporter assay, human HepG2; conditions: for XRE luciferase Emax (footnote c): Emax defined as fold increase at highest concentration tested (10 μM)
T1 sequence (P35869 11-848): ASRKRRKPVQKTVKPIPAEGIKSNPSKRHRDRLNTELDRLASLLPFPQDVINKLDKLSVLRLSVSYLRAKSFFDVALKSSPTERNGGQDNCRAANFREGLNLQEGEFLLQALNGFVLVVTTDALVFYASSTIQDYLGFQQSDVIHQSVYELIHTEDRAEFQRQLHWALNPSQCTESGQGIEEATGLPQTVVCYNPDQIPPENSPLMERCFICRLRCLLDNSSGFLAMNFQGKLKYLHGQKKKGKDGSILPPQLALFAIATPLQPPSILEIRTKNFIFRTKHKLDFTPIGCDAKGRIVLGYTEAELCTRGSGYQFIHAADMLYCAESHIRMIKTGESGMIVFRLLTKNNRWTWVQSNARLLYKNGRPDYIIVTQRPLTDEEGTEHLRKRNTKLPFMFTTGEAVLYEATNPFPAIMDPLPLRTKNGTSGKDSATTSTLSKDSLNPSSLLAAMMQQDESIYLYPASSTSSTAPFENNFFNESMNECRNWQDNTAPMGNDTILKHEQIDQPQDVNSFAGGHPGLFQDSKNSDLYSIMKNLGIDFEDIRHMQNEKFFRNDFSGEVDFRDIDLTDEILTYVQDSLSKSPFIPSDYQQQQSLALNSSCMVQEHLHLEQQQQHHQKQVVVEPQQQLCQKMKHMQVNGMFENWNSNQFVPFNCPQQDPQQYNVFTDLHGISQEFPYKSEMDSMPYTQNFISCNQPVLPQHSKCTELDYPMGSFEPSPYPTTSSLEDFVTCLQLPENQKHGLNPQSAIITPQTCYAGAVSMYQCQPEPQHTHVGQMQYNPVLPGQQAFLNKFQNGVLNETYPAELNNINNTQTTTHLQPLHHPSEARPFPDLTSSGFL
Experimental: The Human HepG2 cell line is a human liver cancer cell line, and provide a relevant in vitro AHR activity model. These Hep2G cells have been modified to stably express an AHR-responsive (XRE) firefly luciferase reporter gene to give Hep2G-XRE cells. The expression of luciferase should primarily reflect AHR-dependent transcription controlled by XRE.
Transfected cells were treated with AhR agonist (10^−5-10^−12) for 4.5 h in full medium. Cells were lysed and luciferase was activated using the Luciferase Assay System (Promega). Luminescence signals were measured with a FluroStar Omega microplate reader. Luminescence signals of compound treated groups were normalized to vehicle (DMSO) treated control and plotted as concentration dependent fold changes.

[5] = cited from earlier work
[6] = biological target: T2, aryl hydrocarbon receptor (AHR) (Mus musculus, UniProt P30561); test: XRE-driven luciferase reporter assay, mouse Hepa1c1c7; type: cell-based
T2 construct: Transfection was performed with 150 ng XRE-luciferase plasmid (Promega); endogenous in cells; host or cells: Hepa-1c1c7 (mouse hepatoma cell line)
Experimental: Human HepG2 or mouse Hepa-1c1c7 cells were seeded in 96 well opaque plates at 75,000 cells per well in full medium (DMEM+10% FBS) for 24 hours. Transfection was performed with 150 ng XRE-luciferase plasmid (Promega) with 4:1 Fugene to DNA ratio for 18 hours in Opti-MEM. Transfected cells were treated with AhR agonist (10^−5-10^−12) for 4.5 h in full medium. Cells were lysed and luciferase was activated using the Luciferase Assay System (Promega). Luminescence signals were measured with a FluroStar Omega microplate reader. Luminescence signals of compound treated groups were normalized to vehicle (DMSO) treated control and plotted as concentration dependent fold changes.

[7] = test system: AHR-dependent transcription of the CYP1A1 gene; test: CYP1A1 induction in human U937 cells; type: cell-based; conditions: Human U937, 1 μM
Experimental: as §1

AhR [8] = biological target: T3, AhR (Mus musculus, UniProt P30561); test: AhR nuclear translocation assay, mouse Hepa-1c1c7; type: cell-based; conditions: mouse Hepa-1c1c7, 10 μM, 90 minutes
T3 construct: endogenous in cells; host or cells: Hepa-1c1c7 (mouse hepatoma cell line)
Experimental: (§2) Mouse Hepa-1c1c7 or human HepG2 cells were seeded in 8 well chamber slides followed by 24 hours incubation in tryptophan deficient media (HBSS with Ca^2+ and Mg^2+, 10% heat inactivated FBS, 1× non-essential amino acids, 1× sodium pyruvate, 4.5 g/L glucose). Cells were treated with vehicle control (DMSO) or 10 μM ITE, compound 108, or compound 109 for 90 minutes in tryptophan deficient media. Following treatment, cells were fixed in 4% formaldehyde and processed according to standard immunofluorescence staining protocol. Primary anti-AhR antibody was applied at 1:100 dilution (Enzo, BML-SA210) and Alexa488 conjugated secondary antibody was applied at 1:500 dilution (Cell Signaling, 4412S). Actin was stained using Alexa 568 conjugated Phalloidin (Fisher). Samples were mounted in anti-fade mounting medium supplemented with DAPI for nuclear staining and imaged with confocal microscopy (Leica SP5×MP, 63× oil lens).

AhR [9] = biological target: T4, AhR (Homo sapiens, UniProt P35869); test: AhR nuclear translocation assay, human HepG2; type: cell-based; conditions: human HepG2, 10 μM, 90 minutes
T4 construct: endogenous in cells; host or cells: HepG2 (human liver cancer cell line)
T4 sequence (P35869 11-848): T1 sequence (P35869 11-848)
Experimental: as §2

[10] = within 8 h; cited from earlier work
cyp1a1 [11] = test: cyp1a1 expression by q-PCR in mouse Hepa-1c1c7 cells; type: cell-based
Experimental: (§3) RNA was extracted using TRIzol (Invitrogen) following manufacturer's instructions and 0.1 μg of RNA was converted to cDNA using a high capacity cDNA reverse transcription kit (Invitrogen). qPCR was performed on the Applied Biosystems 7900 using TaqMan® Universal PCR Master Mix (Life Technologies) with TaqMan® (Life Technologies) primers against cyp1a1 (Mm00487218_m1), AhR (Mm00478932_m1), IL-22 (Mm01226722_g1), Foxp3 (Mm00475162_m1), IL-10 (Mm01288386_m1), TNF-a (Mm00443258_m1), IFN-r (Mm01168134_m1). The fold increase from experimental groups to control was calculated using the delta-delta CT method with 18S (Mm00446186_m1) as an internal reference gene. In vitro and in vivo activation of the AhR singling pathway was confirmed by q-PCR characterization of cyp1a1. For in vitro induction, mouse Hepa-1c1c7 were cultured to confluence in 24 well plates in full DMEM followed by 24 hours incubation in tryptophan deficient media. Cells were treated with vehicle control (DMSO), ITE, compound 108, or compound 109 (10 nM-10 μM) for 8 hours in tryptophan deficient media. At the end of treatment, cells were lysed in TRIzol for RNA isolation. To monitor in vivo induction, (0.1-1000 μg) compound 109 was given per mouse via oral gavage in 100 μl of vehicle (1% HPMC, 1% polysorbate 80). After 12 hours, liver, colon, spleen and leukocytes from blood were collected and lysed in TRIzol (Invitrogen) for q-PCR analysis.

cyp1a1 [12] = test: In vivo tissue cyp1a1 induction after oral gavage (PD profile); parameters: species or system mouse; conditions: mice, oral gavage 0.1-1000 μg, 12 hours
Experimental: as §3, with “After 12 hours, liver, colon, spleen and leukocytes from blood were collected and lysed in TRIzol (Invitrogen) for q-PCR analysis.” left out

DSS induced colitis = DSS induced colitis in mice; type: in vivo, C57BL/6 mice; conditions: 1 μg/day PO; day 11
Experimental: C57BL/6 (8-10 week, male) mice were administered drinking water supplemented with 3% (wt/vol) dextran sodium sulfate (DSS; MP Biomedicals) for 7 days followed by a 13 day recovery period with unsupplemented drinking water. Compound 109 or compound 108 were suspended in vehicle (1% HPMC and 1% polysorbate 80 in water) and given daily by oral gavage (1 ug/mouse in 100 uL), starting at day 0. Control mice were administered 100 μL vehicle. Body weight and disease activity index (DAI) were recorded daily. DAI was determined by combining scores of weight loss, stool consistency, blood in stool, activity, and appearance.^1 Scores were determined as follows: change in weight (0: <1%, 1: 1-10%, 2: 10-18%, 3: 18-20%); stool consistency (0: normal, 1: loose stools, 2: diarrhea); stool blood (0: negative, 1: trace blood, 2: bloody stool, 3: gross bleeding), activity (0: normal, 1: low activity, 2: hiding, 3: no response to gentle stimuli) and appearance (0: normal, 1: rigor, 2: hunched posture). On day 7 and day 11, mice were euthanized and colon were removed for length measurement, histology, RNA isolation, and lamina propria mononuclear cell (LPMC) extraction as detailed below.
Dissected colon were cut longitudinally and rolled using the Swiss roll method with the distal side in the center.^2,3 Colons were fixed overnight in 10% neutral buffered formalin, processed for paraffin embedding and sectioned at 5 μm thickness. To visualize and quantify the inflammatory response and crypt loss, hematoxylin and eosin staining (H&E) was performed. Briefly, sections were cleared with xylene, rehydrated through alcohol gradient, stained by hematoxylin, washed by acid and ammonium alcohol, rinsed in water and exposed to Eosin followed by dehydrating through graded alcohols and cleared in xylene. All sections were mounted using Permount (Fisher Scientific) and visualized using a BX41 microscope (Olympus). For histological scoring, 3 transverse sections of Swiss roll were chosen and 9 (100×) images were captured for each section. Images were analyzed for inflammation and crypt structure and scored by a blind observer as follows: inflammation (0: rare inflammatory cells in the lamina propria; 1: increased numbers of inflammatory cells in the lamina propria; 2: confluence of inflammatory cells extending in to the submucosa; 3: transmural extension of the inflammatory infiltrate.); crypt loss (0: none; 1: basal 1/3 damaged; 2: basal 2/3 damaged; 3: only surface epithelium intact; 4: entire crypt and epithelium lost). Inflammation and crypt loss were scored separately and multiplied by a factor of 1-4 to adjust for impacted area of tissue section (1: 0-25%; 2: 25.1-50% affected; 3: 50.1-75% affected; 4: >75% affected).^1,4 To examine goblet cell number, sections were stained by a commercial periodic acid-Schiff (PAS) and Alcian blue kit (Fisher Scientific). For quantification, 3 transverse sections of Swiss roll were chosen per colon and 5 random images at 200x were taken per section in the distal region of the colon. Goblet cell number was counted per image and normalized to colon length by a blind observer using image J.^5
Colonic epithelium and lamina propria cells were isolated as previously described.^6,7 Briefly, colons were dissected and washed with HBSS to remove fecal contents. Colon were opened longitudinally and cut into 2 cm segments. […]

[13] = XRE luciferase EC50, Human HepG2, least square curve fitting, >10,000 = does not reach 50% of Emax of ITE at 10 μM (highest concentration tested)

T3 sequence (P30561 10-805 limits assumed): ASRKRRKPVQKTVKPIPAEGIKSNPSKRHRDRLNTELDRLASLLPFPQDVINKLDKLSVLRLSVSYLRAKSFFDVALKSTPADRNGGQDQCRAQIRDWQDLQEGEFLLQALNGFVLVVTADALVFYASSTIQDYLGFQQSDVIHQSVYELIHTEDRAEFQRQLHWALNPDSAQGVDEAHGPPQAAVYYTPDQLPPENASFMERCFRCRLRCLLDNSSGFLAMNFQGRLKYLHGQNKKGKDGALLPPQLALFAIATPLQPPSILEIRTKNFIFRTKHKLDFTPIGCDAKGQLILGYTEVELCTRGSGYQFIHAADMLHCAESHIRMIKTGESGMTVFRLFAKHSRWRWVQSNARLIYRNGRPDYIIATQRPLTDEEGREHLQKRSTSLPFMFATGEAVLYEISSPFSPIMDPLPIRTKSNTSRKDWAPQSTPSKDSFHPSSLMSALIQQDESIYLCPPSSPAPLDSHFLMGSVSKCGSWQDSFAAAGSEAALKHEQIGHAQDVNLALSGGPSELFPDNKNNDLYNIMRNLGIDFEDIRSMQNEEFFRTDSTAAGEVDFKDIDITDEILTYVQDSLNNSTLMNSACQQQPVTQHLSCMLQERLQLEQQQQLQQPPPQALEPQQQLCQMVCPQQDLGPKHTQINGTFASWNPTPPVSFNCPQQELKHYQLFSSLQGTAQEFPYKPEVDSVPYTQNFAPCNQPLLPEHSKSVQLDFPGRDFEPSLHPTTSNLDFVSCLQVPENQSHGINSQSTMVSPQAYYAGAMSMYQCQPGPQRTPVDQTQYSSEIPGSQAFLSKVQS
T3 sequence (P53762 whole entry partner): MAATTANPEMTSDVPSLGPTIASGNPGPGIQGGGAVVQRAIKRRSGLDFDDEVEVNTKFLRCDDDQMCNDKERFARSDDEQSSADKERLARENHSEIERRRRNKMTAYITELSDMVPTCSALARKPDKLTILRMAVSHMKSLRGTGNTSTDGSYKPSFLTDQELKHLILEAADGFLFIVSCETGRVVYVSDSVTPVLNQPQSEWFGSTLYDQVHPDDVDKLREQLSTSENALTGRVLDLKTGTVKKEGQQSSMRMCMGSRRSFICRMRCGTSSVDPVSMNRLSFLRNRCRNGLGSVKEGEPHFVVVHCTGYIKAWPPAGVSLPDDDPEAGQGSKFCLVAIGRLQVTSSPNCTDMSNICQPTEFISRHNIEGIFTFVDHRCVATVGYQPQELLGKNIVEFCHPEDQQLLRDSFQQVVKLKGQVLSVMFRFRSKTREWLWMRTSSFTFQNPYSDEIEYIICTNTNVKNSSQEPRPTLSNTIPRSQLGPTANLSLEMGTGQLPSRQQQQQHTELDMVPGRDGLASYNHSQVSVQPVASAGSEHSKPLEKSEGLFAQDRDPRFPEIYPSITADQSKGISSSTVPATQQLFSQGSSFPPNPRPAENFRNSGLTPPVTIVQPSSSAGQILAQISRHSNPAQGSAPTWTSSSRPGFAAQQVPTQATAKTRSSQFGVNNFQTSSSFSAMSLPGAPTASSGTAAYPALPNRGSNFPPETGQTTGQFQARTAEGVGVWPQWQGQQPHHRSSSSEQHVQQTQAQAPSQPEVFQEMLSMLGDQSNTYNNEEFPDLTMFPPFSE
T2 sequence (P30561 10-805 limits assumed): as the sequence (P30561 10-805 limits assumed) above
T2 sequence (P53762 whole entry partner): as the sequence (P53762 whole entry partner) above

| Structure (SMILES) | CYP1A1 induction (% of ITE ± SEM) ([1]; 50 nM) | CYP1A1 induction (% of ITE ± SEM) ([1]; 5 μM) | liver microsomal stability [2] | plasma stability [3] | XRE luciferase Emax (footnote c) ([4]; Human HepG2) | EC50 [4, 13] | CYP1A1 induction (% of ITE ± SEM) [7] | other results |
| --- | --- | --- | --- | --- | --- | --- | --- | --- |
| O=C(c1cccc(-c2ccccc2)n1)c1c[nH]c2ccccc12 [Compound 113, 1H-indol-3-yl-(6-phenyl-2-pyridyl)methanone] | 91 ± 7 % of ITE | 97 ± 9 % of ITE | rapidly metabolized | stable | (114)^c fold | 0.012 µM | – | EC50 ([4]; XRE luciferase EC50 (footnote a), Human HepG2, EC50 defined as concentration induced 50% of Emax of ITE): 0.0121 µM |
| Clc1cc2c(cc1Cl)Oc1cc(Cl)c(Cl)cc1O2 [TCDD, 2,3,7,8-tetrachlorodibenzo-p-dioxin] | – | – | – | – | – | – | – | half-life [5]: 2,840 days |
| COC(=O)c1csc(C(=O)c2c[nH]c3ccccc23)n1 [ITE, 2-(1H-indol-3-ylcarbonyl)-4-thiazolecarboxylic acid methyl ester, reference compound] | 100 % of ITE | 100 % of ITE | highly unstable | highly unstable | – | 0.0053 µM | 100 % of ITE | EC50 [6]: 0.03 µM; XRE luciferase Emax (fold) [6]: 79 fold; AhR nuclear translocation (AhR [8]): localized in the nucleus; also recorded: rapid nuclear enrichment of AhR; AhR nuclear translocation (AhR [9]): localized in the nucleus; also recorded: rapid nuclear enrichment of AhR; ITE inactivated in cell culture [10]: 75%; XRE luciferase Emax (fold) ([4]; Human HepG2, fold over vehicle): 63 fold |
| O=C(c1cccc(C(F)(F)F)n1)c1c[nH]c2ccccc12 [Compound 109, 1H-indol-3-yl-[6-(trifluoromethyl)-2-pyridyl]methanone] | 124 ± 5 % of ITE | 90 ± 17 % of ITE | – | – | – | 0.0023 µM | – | cyp1a1 expression relative to ITE and compound 108 (cyp1a1 [11]; mouse Hepa-1c1c7, 10 nM): significantly increased cyp1a1 expression; cyp1a1 expression (qPCR) (cyp1a1 [11]; mouse Hepa-1c1c7, 10 nM-10 μM, 8 hours): induced AhR-dependent cyp1a1 expression; also recorded: dose dependent induction of cyp1a1 expression; cyp1a1 induction in liver and colon tissue (cyp1a1 [12]): induced dose-dependent cyp1a1; also recorded: Robust, dose-dependent cyp1a1 induction; cyp1a1 induction in spleen and blood (WBC) (cyp1a1 [12]): limited cyp1a1 induction was observed in spleen; also recorded: cyp1a1 regulation only at the highest administered doses; colon IL-22 expression, upregulation (DSS induced colitis): 10 fold |
| COc1cccc(C(=O)c2c[nH]c3ccccc23)c1 [Compound 9] | 9 ± 5 % of ITE | – | – | – | (25)^c fold | > 10 µM | 101 ± 12 % of ITE | – |
